Measurements as given in ChEMBL document CHEMBL5143657, “Discovery, Topo I inhibitory activity and mechanism evaluation of two novel cytisine-type alkaloid dimers from the seeds of Sophora alopecuroides L” (Bioorg Med Chem, 2022).
Active and inactive are the calls of the source. The rule behind the calls is not given here.

Assays:
[1] = target: T1, DNA topoisomerase 1 (Homo sapiens) (UniProt P11387); experiment: Inhibition of topoisomerase 1 (unknown origin) assessed as reduction in relaxation of supercoiled DNA at 1 mM using pBR322 plasmid DNA as substrate measured after 30 mins by gel electrophoresis relative to control
T1 sequence (whole entry): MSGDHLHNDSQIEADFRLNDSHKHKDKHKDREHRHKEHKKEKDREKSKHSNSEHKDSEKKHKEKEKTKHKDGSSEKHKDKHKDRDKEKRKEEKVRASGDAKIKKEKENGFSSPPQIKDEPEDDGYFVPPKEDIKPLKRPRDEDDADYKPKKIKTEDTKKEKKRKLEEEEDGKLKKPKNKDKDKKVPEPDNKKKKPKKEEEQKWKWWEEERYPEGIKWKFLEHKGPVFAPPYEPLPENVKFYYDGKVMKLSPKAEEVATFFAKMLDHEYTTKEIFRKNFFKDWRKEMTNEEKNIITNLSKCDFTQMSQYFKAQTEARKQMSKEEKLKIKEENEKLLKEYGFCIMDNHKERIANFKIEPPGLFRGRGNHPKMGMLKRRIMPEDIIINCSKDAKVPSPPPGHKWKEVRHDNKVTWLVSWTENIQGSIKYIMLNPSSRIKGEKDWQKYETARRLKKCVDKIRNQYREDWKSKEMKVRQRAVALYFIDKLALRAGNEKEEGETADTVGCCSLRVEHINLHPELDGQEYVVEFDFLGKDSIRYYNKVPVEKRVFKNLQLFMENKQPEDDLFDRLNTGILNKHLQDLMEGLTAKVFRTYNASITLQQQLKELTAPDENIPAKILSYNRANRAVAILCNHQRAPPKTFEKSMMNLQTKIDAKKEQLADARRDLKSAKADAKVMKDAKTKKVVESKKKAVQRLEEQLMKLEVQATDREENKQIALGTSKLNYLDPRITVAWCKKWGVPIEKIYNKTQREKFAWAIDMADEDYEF

[2] = target: T1, DNA topoisomerase 1 (Homo sapiens); experiment: Poison activity at topoisomerase 1 (unknown origin) assessed as stabilization of enzyme-DNA cleavage complex by measuring increase in nicked DNA formation at 1 mM using pBR322 DNA as substrate after 30 mins by agarose gel electrophoresis
[3] = target: T1, DNA topoisomerase 1 (Homo sapiens); experiment: Inhibition of topoisomerase 1 (unknown origin) assessed as DNA intercalation at 1 mM using pBR322 DNA as substrate measured after 30 mins by gel electrophoresis relative to control

O=C1CCC[C@H]2[C@@H]3CCCN[C@H]3[C@H](CCCN3C[C@H]4C[C@H](C3)c3cccc(=O)n3C4)CN12
inhibition [1]: 82.3% | Activity [2]: Active

O=C1CCC[C@H]2[C@H]3CCCN[C@@H]3[C@@H](CCCN3C[C@H]4C[C@H](C3)c3cccc(=O)n3C4)CN12
inhibition [1]: 58.6% | Activity [2]: Active

CC[n+]1c(-c2ccccc2)c2cc(N)ccc2c2ccc(N)cc21
inhibition [3]: Active
